PMC5967629 (Bioorganic & medicinal chemistry, 2018)
Values belong to the compound of their own block, whether it stands above or below them.

Key:
MDA-MB-435 cancer cells = assay: SRB antiproliferative assay in MDA-MB-435 cells; assay type: cell-based; conditions: for fold less potent than 1 in MDA-MB-435 cells: relative to IC50 of 1; for antiproliferative activity (in words): MDA-MB-435 cells, Table 2
[1] = Metabolite identification of 3 in human liver microsomes; assay type: in vitro ADME; conditions: 3 at 20 μM incubated with human liver microsomes
A-10 cells = assay type: cell-based; conditions: for microtubule depolymerization activity (in words): A-10 cells, Table 2
Parental SK-OV-3 = assay: SRB assay in parental SK-OV-3 cells; assay type: cell-based; conditions: Homo sapiens, SK-OV-3, read-out: IC50 ± SD Parental SK-OV-3

Compound: CNc1ccc(N(C)c2nc(C)nc3c2CCC3)cc1 [Compound 7, N-(4-Methylaminophenyl)-N,2-dimethyl-6,7-dihydro-5H-cyclopenta[d]pyrimidin-4-amine]
fold less potent than 1 in MDA-MB-435 cells (MDA-MB-435 cancer cells): 2.9 fold

MS Peak Area in 60 min sample, HPLC area [1]: 2,061,000
Compound: CSc1ccc(N(C)c2nc(C)nc3c2CCC3)cc1 [Compound 3, N-(4-Methiophenyl)-N,2-dimethyl-6,7-dihydro-5H-cyclopenta[d]pyrimidin-4-amine]

Compound: COc1ccc(CN(C)c2nc(C)nc3c2CCC3)cc1 [Compound 12, N-(4-Methoxylphenyl)methyl-N,2-dimethyl-6,7-dihydro-5H-cyclopenta[d]pyrimidin-4-ammonium chloride]
antiproliferative activity (in words) (MDA-MB-435 cancer cells): poor MDA-MB-435 inhibitory activity

Compound: COc1ccc([C@H](C)N(C)c2nc(C)nc3c2CCC3)cc1 [Compound 13, N-[1(1S)-(4-Methoxylphenyl)ethyl]-N,2-dimethyl-6,7-dihydro-5H-yclopenta[d]pyrimidin-4-amine]
microtubule depolymerization activity (in words) (A-10 cells): devoid of any microtubule depolymerization activity

Compound: COc1ccc(N(C)c2nc(C)nc3c2CCC3)cc1 [Compound 1]
IC50 (MDA-MB-435 cancer cells; Homo sapiens, MDA-MB-435, read-out: IC50 ± SD (MDA-MB-435) Cancer cells): 0.007 ± 0.0007 µM
IC50 (Parental SK-OV-3): 0.0113 ± 0.0002 µM

MS Peak Area in 60 min sample, HPLC area [1]: 2,199,500
Compound: Cc1nc2c(c(N(C)c3ccc([S+](C)[O-])cc3)n1)CCC2 (stereo not shown) [Compound 5, N-(4-Methylsulfinylphenyl)-N,2-dimethyl-6,7-dihydro-5H-cyclopenta[d]pyrimidin-4-amine]

EC50 (A-10 cells; read-out: EC50 in A-10 cells, microtubule depolymerizing activity): > 10 µM
Compound: N-(4-Methoxycyclohexyl)-N,2-dimethyl-6,7-dihydro-5H-cyclopenta[d]pyrimidin-4-amine [Compound 11]
microtubule depolymerization activity (in words) (A-10 cells): devoid of any microtubule depolymerization activity

Compound: COc1ccc(N(C)c2nc(C)nc3c2CCC3)cc1C [Compound 10, N-(3-Methyl-4-methoxylphenyl)-N,2-dimethyl-6,7-dihydro-5H-cyclopenta[d]pyrimidin-4-amine]
fold less potent than 1 in MDA-MB-435 cells (MDA-MB-435 cancer cells): about 2.6 fold

Compound: Cc1nc2c(c(N(C)c3ccc(N)cc3)n1)CCC2 [Compound 8, N-(4-Aminophenyl)-N,2-dimethyl-6,7-dihydro-5H-cyclopenta[d]pyrimidin-4-amine]
antiproliferative activity (in words) (MDA-MB-435 cancer cells): low activity

Compound: Cc1nc2c(c(N(C)c3ccc4c(c3)CCO4)n1)CCC2 [Compound 9, N-(2,3-Dihydrobenzofuran-5-yl)-N,2-dimethyl-6,7-dihydro-5H-cyclopenta[d]pyrimidin-4-amine]
fold less potent than 1 in MDA-MB-435 cells (MDA-MB-435 cancer cells): 1.7 fold

Compound: Cc1nc2c(c(N(C)c3ccc(O)cc3)n1)CCC2 [Compound 2, N-(4-Hydroxylphenyl)-N,2-dimethyl-6,7-dihydro-5H-cyclopenta[d]pyrimidin-4-amine]
antiproliferative activity (in words) (MDA-MB-435 cancer cells): low activity

MS Peak Area in 60 min sample, HPLC area [1]: 98,900
Compound: Cc1nc2c(c(N(C)c3ccc(S(C)(=O)=O)cc3)n1)CCC2 [Compound 6, N-(4-Methylsulfonylphenyl)-N,2-dimethyl-6,7-dihydro-5H-cyclopenta[d]pyrimidin-4-amine]
microtubule depolymerization activity (in words) (A-10 cells): inactive

Compound: COc1ccc([C@@H](C)N(C)c2nc(C)nc3c2CCC3)cc1 [Compound 14, N-[1(1R)-(4-Methoxylphenyl)ethyl]-N,2-dimethyl-6,7-dihydro-5H-cyclopenta[d]pyrimidin-4-amine]
microtubule depolymerization activity (in words) (A-10 cells): devoid of any microtubule depolymerization activity
